Key:
[1] = system: HCT 116 (colon) cells; test: Anti-cancer screen, growth inhibition (MTT); format: cell-based; settings: Homo sapiens, HCT-116 cells, 48 hours of incubation
Description: (§1) Experimental drugs were screened for anti-cancer activity in three cell fines using five concentrations for each compound.
(§2) Following 24-hour incubation, test compounds were added to the 96 well plates. Each plate contains one of the above cell lines and the following samples in triplicate: five different dilutions (0.01, 0.1, 1, 10 and 100 μM) of four test compounds, appropriate dilutions of a cytotoxic standard and growth medium (untreated) wells. […] SAHA was used as standard drug in these experiments.
(§3) For T0 measurement, 24 hours after seeding the cells, 20 μL of 3-(4.5-dimethyl-2-thiazolyl)-2,5-diphenyl-2H-tetrazolium (MTT) solution per well was added to the ‘T0’ plate and incubated for 3 hours at 37° C. in a CO2 incubator. The plate containing cells and test compounds was treated similarly after 48 hours of incubation. After 3 hours of MTT addition, well contents were aspirated carefully followed by addition of 150 μL DMSO per well. Plates were agitated to ensure dissolution of the formazan crystals in DMSO and absorbance was read at 570 nm (A570).

[2] = system: U251 (glioma) cells; test: Anti-cancer screen, growth inhibition (MTT); format: cell-based; settings: Homo sapiens, U-251 cells, 48 hours of incubation
Description: as §1, §2, §3

[3] = system: NCI-H460 (lung) cells; test: Anti-cancer screen, growth inhibition (MTT); format: cell-based; settings: Homo sapiens, 48 hours of incubation
Description: as §1, §2, §3

[4] = system: T1, HDAC (Mouse Liver Extract); test: HDAC inhibition assay using Boc-Lys(Ac)-AMC substrate, mouse liver enzyme; format: biochemical;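 for IC50: IC50 for inhibition of HDAC activity in mouse liver extract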
T1 construct: Mouse liver enzyme (10 mg/ml) was diluted 1:6 with HDAC buffer
Description: Histone Deacetylase (HDAC) Inhibition Assay using Boc-Lys (Ac)-AMC Substrate: Inhibition of HDAC has been implicated to modulate transcription and to induce apoptosis or differentiation in cancer cells. The fluorometric assay provides a fast and fluorescence based method that eliminates radioactivity, extractions or chromatography, as used in traditional assays. The assay is based on two steps. First, the HDAC fluorometric substrate, which comprises an acetylated lysine side chain, is incubated with a sample containing HDAC activity (Mouse Liver Extract). Deacetylation of the substrate sensitizes the substrate, in the second step; treatment with the Trypsin stop solution produces a fluorophore that can be easily analyzed using fluorescence plate reader.
Assay was done in 96-well black microplate and total volume of the assay was 100 μL. Mouse liver enzyme (10 mg/ml) was diluted 1:6 with HDAC buffer. Enzyme cocktail was made of 10 μL of diluted enzyme and 30 μL of HDAC buffer. 40 μl of enzyme cocktail followed by 10 μL of test compound (1 μM and 10 μM) or buffer (control) was added to each well. The plate was pre-incubated at 37° C. for 5 minutes. The HDAC reaction was started by adding 50 μl of HDAC substrate Boc-Lys (Ac)-AMC (Bachem AG, Switzerland). The plate was incubated at 37° C. for 30 minutes. […] Measuring the fluorescence at excitation wavelength of 360 nm and emission wavelength of 460 nm monitored the release of AMC. Buffer alone and substrate alone served as blank.

Row | GI50 [1] [µM] | GI50 [2] [µM] | GI50 [3] [µM] | HDAC Inhibition % (1 μM) [4] [%] | HDAC Inhibition % (10 μM) [4] [%] | IC50 [4] [µM] | Structure (SMILES)
1 | 22 | 40 | 12 | 36.9 | 55.4 | – | Nc1ccccc1NC(=O)c1ccc(/C=C(/C(=O)NC2CC2)c2cccnc2)cc1 [Example 127, N-(2-Aminophenyl)-4-[3-(cyclopropylamino)-3-oxo-2-pyridin-3-yl-prop-1-en-1-yl]benzamide]
2 | > 100 | 0.6 | > 100 | 28.0 | 37.0 | – | Nc1ccccc1NC(=O)/C=C/c1ccc(/C=C(/C(=O)NC2CC2)c2cccs2)cc1 [Example 71, N-Cyclopropyl-3-(4-((1E)-3-(2-aminophenylamino)-3-oxoprop-1-en-1-yl}phenyl)-2-(thiophen-2-yl)acrylamide]
3 | 1.3 | 1.5 | 1.2 | 64.8 | 94.3 | 0.19 | O=C(/C=C/c1ccc(/C=C(/C(=O)NCc2ccc(F)cc2)c2ccc(F)cc2)cc1)NO [Example 34, N-(4-Fluorobenzyl)-2-(4-fluorophenyl)-3-(4-((1E)-3-(hydroxyamino)-3-oxoprop-1-en-1-yl)phenyl)acrylamide]
4 | 30 | 22 | 25 | 88.7 | 98.0 | – | O=C(NC1CC1)/C(=C/c1ccc(C(=O)NCc2ccc(C(=O)NO)cc2)cc1)c1ccc(F)cc1 [Example 152, 4-(3-(Cyclopropylamino)-2-(4-fluorophenyl)-3-oxoprop-1-en-1-yl)-N-(4-(hydroxycarbamoyl)benzyl)benzamide]
5 | > 100 | > 100 | > 100 | 23.5 | 25.3 | – | Nc1ccc(-c2ccccc2)cc1NC(=O)c1ccc(/C=C(/C(=O)NC2CC2)c2ccc(F)cc2)cc1 [Example 132]
6 | 7 | 5 | 6.3 | 77.4 | 95.9 | 0.37 | O=C(/C=C/c1ccc(/C=C(/C(=O)Nc2ccccc2)c2cccc(OC3CCCC3)c2)cc1)NO [Example 44, 2-(3-Cyclopentyloxyphenyl)-3-(4-((1E)-3-(hydroxyamino)-3-oxoprop-1-en-1-yl)phenyl)-N-phenylacrylamide]
7 | 4 | 0.8 | 19 | 100.0 | 100.0 | < 0.001 | O=C(/C=C/c1ccc(/C=C(/C(=O)NC2CC2)c2cccc(Cl)c2)cc1)NCCCCCC(=O)NO [Example 80, 6-((1E)-3-(4-(3-(Cyclopropylamino)-2-(3-chlorophenyl)-3-oxoprop-1-en-1-yl)phenyl)acrylamido)-N-hydroxyhexanamide]
8 | 64 | – | > 100 | 27.1 | 58.0 | – | Nc1ccccc1NC(=O)/C=C/c1ccc(/C=C(/C(=O)NC2CC2)c2cccnc2)cc1 [Example 62, N-Cyclopropyl-3-(4-((1E)-3-(2-aminophenylamino)-3-oxoprop-1-en-1-yl}phenyl)-2-(pyridin-3-yl)acrylamide]
9 | 31 | 21 | 45 | – | – | – | O=C(NC1CC1)/C(=C/c1ccc(C(=O)NCc2ccc(C(=O)NO)cc2)cc1)c1ccccc1F [Example 150, 4-(3-(Cyclopropylamino)-2-(2-fluorophenyl)-3-oxoprop-1-en-1-yl)-N-(4-(hydroxycarbamoyl)benzyl)benzamide]
10 | 20 | 0.1 | 0.3 | – | – | – | O=C(CCCCCNC(=O)c1ccc(/C=C(/C(=O)NC2CC2)c2ccc(F)cc2)cc1)NO [Example 160, 4-(3-(Cyclopropylamino)-2-(4-fluorophenyl)-3-oxoprop-1-en-1-yl)-N-(6-(hydroxyamino)-6-oxohexyl)benzamide]
11 | 1 | 19 | 30 | – | – | – | O=C(/C=C/c1ccc(/C(=C\c2ccc(OCC3CC3)cc2)C(=O)NC2CC2)cc1)NO [Example 49, N-Cyclopropyl-3-(4-cyclopropylmethoxyphenyl)-2-(4-((1E)-3-(hydroxyamino)-3-oxoprop-1-en-1-yl)phenyl)acrylamide]
12 | 29 | 20 | 68 | – | – | – | O=C(NC1CC1)/C(=C/c1ccc(C(=O)NO)cc1)c1ccccc1F [Example 103, 4-(3-(Cyclopropylamino)-2-(2-fluorophenyl)-3-oxoprop-1-en-1-yl)-N-hydroxy benzamide]
13 | – | – | 80 | 19.1 | 21.1 | – | Nc1ccccc1NC(=O)/C=C/c1ccc(/C=C(/C(=O)N2CCOCC2)c2ccc(F)cc2)cc1 [Example 68, N-Morpholino-3-(4-((1E)-3-(2-aminophenylamino)-3-oxoprop-1-en-1-yl}phenyl)-2-(4-fluorophenyl)acrylamide]
14 | 3 | 0.8 | 1.3 | – | – | – | O=C(/C=C/c1ccc(CNC(=O)c2ccc(/C=C(/C(=O)NC3CC3)c3ccccc3)cc2)cc1)NO [Example 146, 4-(3-(Cyclopropylamino)-2-phenyl-3-oxoprop-1-en-1-yl)-N-(4-((E)-3-(hydroxyamino)-3-oxoprop-1-en-1-yl)benzyl)benzamide]
15 | 8.5 | 21.8 | 48 | – | – | – | CN(C)C(=O)/C(=C/c1ccc(/C=C/C(=O)NO)cc1)c1ccc(F)cc1 [Example 3, N,N-Dimethyl-2-(4-fluorophenyl)-3-(4-((1E)-3-(hydroxyamino)-3-oxoprop-1-en-1-yl)phenyl)acrylamide]
16 | 10 | 12 | 40 | – | – | – | O=C(NC1CC1)/C(=C/c1ccc(C(=O)NCc2ccc(C(=O)NO)cc2)cc1)c1ccccc1Cl [Example 151, 4-(3-(Cyclopropylamino)-2-(2-chlorophenyl)-3-oxoprop-1-en-1-yl)-N-(4-(hydroxycarbamoyl)benzyl)benzamide]
17 | 7.8 | 4.5 | 28 | – | – | – | CNC(=O)/C(=C/c1ccc(/C=C/C(=O)NO)cc1)c1ccc(F)cc1 [Example 2, N-Methyl-2-(4-fluorophenyl)-3-(4-((1E)-3-(hydroxyamino)-3-oxoprop-1-en-1-yl)phenyl)acrylamide]
18 | 10 | – | 20 | – | – | – | CN(C)C(=O)/C(=C/c1ccc(/C=C/C(=O)NCCCCCC(=O)NO)cc1)c1ccc(F)cc1 [Example 76, 6-((1E)-3-(4-(3-(N,N-Dimethylamino)-2-(4-fluorophenyl)-3-oxoprop-1-en-1-yl)phenyl)acrylamido)-N-hydroxyhexanamide]
19 | 20 | – | 59.2 | 11.5 | 49.9 | – | Nc1ccccc1NC(=O)/C=C/c1ccc(/C=C(/C(=O)NC2CC2)c2ccc(F)cc2)cc1 [Example 59]
20 | 58 | – | 67 | 39.8 | 76.2 | – | COc1ccc(/C(=C\c2ccc(C(=O)NO)cc2)C(=O)NC2CC2)cc1 [Example 100, 4-(3-(Cyclopropylamino)-2-(4-methoxyphenyl)-3-oxoprop-1-en-1-yl)-N-hydroxy benzamide]
21 | 68 | – | > 100 | 12.3 | 14.6 | – | Nc1ccccc1NC(=O)/C=C/c1ccc(/C=C(/C(=O)NC2CC2)c2ccc(C(F)(F)F)cc2)cc1 [Example 61, N-Cyclopropyl-3-(4-((1E)-3-(2-aminophenylamino)-3-oxoprop-1-en-1-yl}phenyl)-2-(4-(trifluoromethyl)phenyl)acrylamide]
22 | 1.6 | 0.08 | 0.5 | – | – | – | O=C(/C=C/c1ccc(CNC(=O)c2ccc(/C=C(/C(=O)NC3CC3)c3ccc(F)cc3)cc2)cc1)NO [Example 145, 4-(3-(Cyclopropylamino)-2-(4-fluorophenyl)-3-oxoprop-1-en-1-yl)-N-(4-((E)-3-(hydroxyamino)-3-oxoprop-1-en-1-yl)benzyl)benzamide]
23 | 44 | – | 60 | 44.6 | 84.9 | – | COc1cccc(/C(=C\c2ccc(C(=O)NO)cc2)C(=O)NC2CC2)c1 [Example 101, 4-(3-(Cyclopropylamino)-2-(3-methoxyphenyl)-3-oxoprop-1-en-1-yl)-N-hydroxy benzamide]

Source: patent publication US8450525B2, “Histone deacetylase inhibitors” (Orchid Chemicals & Pharmaceuticals Limited, priority 2007, dated 2013)
